≈ marks a conversion by molar mass, not a printed value.
Assays:
[1] = Half life in Sprague-Dawley rat liver microsomes at 0.1 uM in presence of NADPH by LC/MS/MS method; format: ADME
Liver microsome [2] = experiment: Intrinsic clearance in human liver microsomes assessed per mg protein at 0.1 uM incubated for 7 to 60 mins in presence of NADPH by LC/MS/MS method; format: ADME; design: unit not given here
Staphylococcus aureus [3] = experiment: Antibacterial activity against methicillin-sensitive Staphylococcus aureus incubated for 16 hrs by agar dilution method; format: functional
Streptococcus pneumoniae = experiment: Antibacterial activity against penicillin-resistant Streptococcus pneumoniae incubated for 16 hrs by agar dilution method; format: functional
[4] = test system: Staphylococcus epidermidis; experiment: Antibacterial activity against methicillin-sensitive Staphylococcus epidermidis incubated for 16 hrs by agar dilution method; format: functional
[5] = test system: Staphylococcus epidermidis; experiment: Antibacterial activity against methicillin-resistant Staphylococcus epidermidis incubated for 16 hrs by agar dilution method; format: functional
Enterococcus faecalis = experiment: Antibacterial activity against Enterococcus faecalis incubated for 16 hrs by agar dilution method; format: functional
Staphylococcus aureus [6] = experiment: Antibacterial activity against Staphylococcus aureus […] incubated for 16 hrs by agar dilution method; format: functional
Staphylococcus aureus [7] = experiment: Antibacterial activity against methicillin-resistant Staphylococcus aureus incubated for 16 hrs by agar dilution method; format: functional
Liver microsome [8] = experiment: Intrinsic clearance in Sprague-Dawley rat liver microsomes assessed per mg protein at 0.1 uM incubated for 7 to 60 mins in presence of NADPH by LC/MS/MS method; format: ADME; design: unit not given here
[9] = Half life in human liver microsomes at 0.1 uM in presence of NADPH by LC/MS/MS method; format: ADME

| SMILES | half-life at 0.1 µM [1] [h] | CLH (Liver microsome [2]) | MIC (Staphylococcus aureus [3]) [µg/mL] | MIC (Streptococcus pneumoniae) [µg/mL] | MIC [4] [µg/mL] | MIC [5] [µg/mL] | MIC (Enterococcus faecalis) [µg/mL] | MIC (Staphylococcus aureus [6]) [µg/mL] | MIC (Staphylococcus aureus [7]) [µg/mL] | CLH (Liver microsome [8]) | half-life at 0.1 µM [9] [h] |
| --- | --- | --- | --- | --- | --- | --- | --- | --- | --- | --- | --- |
| CC(=O)NC[C@@H]1OC(=O)N2c3ccc(-c4ccc(C5CN(C)C(=O)O5)nc4)cc3SC[C@@H]12 (single isomer, unassigned) | 3.85 | 0 | 4 (≈ 8.8 µM) | 2 (≈ 4.4 µM) | 2 (≈ 4.4 µM) | 2 (≈ 4.4 µM) | 4 (≈ 8.8 µM) | 4 (≈ 8.8 µM) | 2 (≈ 4.4 µM) | 9.08 |  |
| N#Cc1ccc(-c2ccc3c(c2)OC[C@H]2[C@H](CO)SC(=O)N32)cn1 |  |  | > 16 | > 16 | > 16 |  | > 16 | > 16 |  |  |  |
| CC(=O)NC[C@@H]1OC(=O)N2c3ccc(-c4ccc(N5CCOC5=O)nc4)cc3[S+]([O-])C[C@@H]12 (some centres not stated) |  |  | > 16 | > 16 | > 16 |  | > 16 | > 16 |  |  |  |
| CC(=S)NC[C@@H]1OC(=O)N2c3ccc(-c4ccc(C#N)nc4)cc3SC[C@@H]12 |  |  | 8 (≈ 20.2 µM) | 4 (≈ 10.1 µM) | 4 (≈ 10.1 µM) | 4 (≈ 10.1 µM) | > 16 | 8 (≈ 20.2 µM) | 4 (≈ 10.1 µM) |  |  |
| CC(=O)NC[C@H]1CN(c2ccc(N3CCOCC3)c(F)c2)C(=O)O1 [LINEZOLID] |  |  |  |  | 2 (≈ 5.93 µM) | 2 (≈ 5.93 µM) |  |  | 1 (≈ 2.96 µM) |  |  |
| CC(=O)NC[C@@H]1OC(=O)N2c3ccc(-c4ccc(C#N)nc4)cc3SC[C@@H]12 |  |  | 4 (≈ 10.5 µM) | 2 (≈ 5.26 µM) | 4 (≈ 10.5 µM) | 4 (≈ 10.5 µM) | 2 (≈ 5.26 µM) | 8 (≈ 21 µM) | 4 (≈ 10.5 µM) |  |  |
| CC(=O)NCC1OC(=O)N2c3ccc(-c4ccc(N5CCOC5=O)nc4)cc3NCC12 (configuration not stated) |  |  | 16 (≈ 37.8 µM) | 4 (≈ 9.45 µM) | 16 (≈ 37.8 µM) | > 2 | 16 (≈ 37.8 µM) | 16 (≈ 37.8 µM) | > 4 |  |  |
| COc1ccc(-c2ccc3c(c2)SC[C@H]2[C@H](CNC(C)=S)OC(=O)N32)cn1 |  |  | 4 (≈ 9.96 µM) | 2 (≈ 4.98 µM) | 4 (≈ 9.96 µM) | 4 (≈ 9.96 µM) | 8 (≈ 19.9 µM) | 4 (≈ 9.96 µM) | 4 (≈ 9.96 µM) |  |  |
| CC(=O)NC[C@@H]1OC(=O)N2c3ccc(-c4ccc(C(C)=O)nc4)cc3SC[C@@H]12 |  |  | 2 (≈ 5.03 µM) | 2 (≈ 5.03 µM) | 2 (≈ 5.03 µM) | 2 (≈ 5.03 µM) | 4 (≈ 10.1 µM) | 8 (≈ 20.1 µM) | 2 (≈ 5.03 µM) |  |  |
| CC(=S)NC[C@@H]1OC(=O)N2c3ccc(-c4ccc(F)nc4)cc3SC[C@@H]12 |  |  | 8 (≈ 20.5 µM) | 1 (≈ 2.57 µM) | 2 (≈ 5.14 µM) | 1 (≈ 2.57 µM) | 2 (≈ 5.14 µM) | 8 (≈ 20.5 µM) | 2 (≈ 5.14 µM) |  |  |
| N#CC1(c2ccc(-c3ccc4c(c3)SC[C@H]3[C@H](CO)OC(=O)N43)cn2)CC1 |  |  | > 16 | > 16 | > 16 |  | > 16 | > 16 |  |  |  |
| CC(C)(C)OC(=O)N1CC2C(CO)OC(=O)N2c2ccc(-c3ccc(C4(C#N)CC4)nc3)cc21 (configuration not stated) |  |  | > 16 | > 16 | > 16 |  | > 16 | > 16 |  |  |  |
| CC(=O)NCC1OC(=O)N2c3ccc(-c4ccc(N5CCOC5=O)nc4)cc3N(C(=O)OC(C)(C)C)CC12 (configuration not stated) |  |  | > 16 | > 16 | > 16 |  | > 16 | > 16 |  |  |  |
| N#Cc1ccc(-c2ccc3c(c2)SC[C@H]2[C@H](CO)OC(=O)N32)cn1 |  |  | > 16 | > 16 | > 16 |  | > 16 | > 16 |  |  |  |
| O=C1OCCN1c1ccc(-c2ccc3c(c2)OC[C@H]2[C@H](CO)SC(=O)N32)cn1 |  |  | > 16 | > 16 | > 16 |  | > 16 | > 16 |  |  |  |
| CC(=O)NC[C@@H]1OC(=O)N2c3ccc(-c4ccc(N5CCOC5=O)nc4)cc3S(=O)(=O)C[C@@H]12 |  |  | > 16 | > 16 | > 16 |  | > 16 | > 16 |  |  |  |
| CN1CC(c2ccc(-c3ccc4c(c3)OC[C@H]3[C@H](CO)SC(=O)N43)cn2)OC1=O (single isomer, unassigned) |  |  | > 16 | > 16 | > 16 |  | > 16 | > 16 |  |  |  |
| CC(=O)NC[C@@H]1OC(=O)N2c3ccc(-c4ccc(C5(C#N)CC5)nc4)cc3SC[C@@H]12 |  |  | 4 (≈ 9.51 µM) | 2 (≈ 4.76 µM) | 2 (≈ 4.76 µM) | 2 (≈ 4.76 µM) | 4 (≈ 9.51 µM) | 4 (≈ 9.51 µM) | 2 (≈ 4.76 µM) |  |  |
| O=C1OCCN1c1ccc(-c2ccc3c(c2)SC[C@H]2[C@H](CO)OC(=O)N32)cn1 |  |  | > 16 | > 16 | > 16 |  | > 16 | > 16 |  |  |  |
| CC(=O)NC[C@@H]1OC(=O)N2c3ccc(-c4ccc(N5CCOC5=O)nc4)cc3SC[C@@H]12 | 6.13 | 3.47 | 4 (≈ 9.08 µM) | 1 (≈ 2.27 µM) | 2 (≈ 4.54 µM) | 2 (≈ 4.54 µM) | 4 (≈ 9.08 µM) | 4 (≈ 9.08 µM) | 2 (≈ 4.54 µM) | 5.71 | 10.1 |
| COc1ccc(-c2ccc3c(c2)SC[C@H]2[C@H](CNC(C)=O)OC(=O)N32)cn1 |  |  | 8 (≈ 20.8 µM) | 4 (≈ 10.4 µM) | 4 (≈ 10.4 µM) | 4 (≈ 10.4 µM) | 8 (≈ 20.8 µM) | 8 (≈ 20.8 µM) | 4 (≈ 10.4 µM) |  |  |
| CN1C[C@H](c2ccc(-c3ccc4c(c3)OC[C@H]3[C@H](CO)OC(=O)N43)cn2)OC1=O | 16.7 |  | 0.5 (≈ 1.26 µM) | 1 (≈ 2.52 µM) | 0.25 (≈ 0.629 µM) | 0.25 (≈ 0.629 µM) | 1 (≈ 2.52 µM) | 0.5 (≈ 1.26 µM) | 0.5 (≈ 1.26 µM) |  | 68.8 |
| CC(=O)NC[C@@H]1OC(=O)N2c3ccc(-c4ccc(F)nc4)cc3SC[C@@H]12 |  |  | 4 (≈ 10.7 µM) | 2 (≈ 5.36 µM) | 2 (≈ 5.36 µM) | 2 (≈ 5.36 µM) | 4 (≈ 10.7 µM) | 4 (≈ 10.7 µM) | 2 (≈ 5.36 µM) |  |  |
| N#CC1(c2ccc(-c3ccc4c(c3)NCC3C(CO)OC(=O)N43)cn2)CC1 (configuration not stated) |  |  | > 16 | > 16 | > 16 |  | > 16 | > 16 |  |  |  |
| CC(=S)NC[C@@H]1OC(=O)N2c3ccc(-c4ccc(N5CCOC5=O)nc4)cc3SC[C@@H]12 | 0.35 | 63.4 | 2 (≈ 4.38 µM) | 1 (≈ 2.19 µM) | 1 (≈ 2.19 µM) | 1 (≈ 2.19 µM) | 1 (≈ 2.19 µM) | 2 (≈ 4.38 µM) | 1 (≈ 2.19 µM) | 99.6 | 0.55 |

— ChEMBL document CHEMBL3400146, “Synthesis and structure-activity relationship studies of novel [6,6,5] tricyclic oxazolidinone derivatives as potential antibacterial agents” (Bioorg Med Chem Lett, 2015)
